Results: US20060210497A1, “Novel resorcinol derivatives” (Unilever Home & Personal Care USA, Division Of Conopco, Inc., priority 2005, published 2006)
pIC50: −log10 of the molar value.

Experiments:
[1] = tested on: human sebocytes; assay: Sebocyte assay (14C-acetate incorporation, sebocyte lipid synthesis); format: cell-based
Protocol: Sebocyte Assay Procedure:
Secondary cultures of human sebocytes obtained from an adult […] were grown in 96-well tissue culture plates (Packard) until three days post-confluence. Sebocyte growth medium consisted of Clonetics Keratinocyte Basal Medium (KBM) supplemented with 14 ug/ml bovine pituitary extract, 0.4 ug/ml hydrocortisone, 5 ug/ml insulin, 10 ng/ml epidermal growth factor, 1.2×10^−10 M cholera toxin, 100 units/ml penicillin, and 100 ug/ml streptomycin. All cultures were incubated at 37° C. in the presence of 7.5% CO2. Medium was changed three times per week.
On the day of experimentation, the growth medium was removed and the sebocytes washed three times with sterile Dulbecco's Modified Eagle Medium (DMEM; phenol red free). Fresh DMEM was added to each sample (triplicates) with 2-microliters of test agent solubilized in ethanol. Controls consisted of addition of ethanol alone. Each plate was returned to the incubator for 20-hours followed by the addition of ^14C-acetate buffer (5 mM final concentration, 56 mCi/mmol specific activity). Sebocytes were returned to the incubator for 4-hours, after which, each culture was rinsed 3-times with phosphate buffered saline to remove unbound label. Radioactive label remaining in the sebocytes was determined using a Packard TopCount scintillation counter. Statistical significance (p value) was calculated using student's t-test. Phenol Red, a known sebum suppressive agent, was employed as a positive control.

[2] = target: Mushroom tyrosinase; assay: Mushroom tyrosinase assay; format: biochemical; conditions: for pIC50: L-DOPA 0.5 mM, tyrosinase 0.1 mg/ml, phosphate pH 7.0, room temperature; for potency of tyrosinase inhibition, compared in words: cyclohexyl methyl resorcinol compared with ethyl resorcinol
Protocol: Mushroom Tyrosinase Assay Mushroom tyrosinase inhibition is indicative of reduction in melanin synthesis, thereby showing skin lightening effect. Reagents: • Assay buffer: phosphate (100 mM, pH 7.0) • Mushroom tyrosinase stock solution (Sigma-Aldrich, Batch # 023K7024): 0.2 mg/ml in assay buffer • L-DOPA stock solution: 1.05 mM in assay buffer • Test compound stock solutions: 10 mM in DMSO Assay Conditions: • Mushroom tyrosinase: 0.1 mg/ml in assay buffer • L-DOPA: 0.5 mM in assay buffer • Test compounds: various concentrations, 2.5% final [DMSO] • Temperature: room temperature Procedure: […] The reaction is started by adding mushroom tyrosinase (100 uL of stock solution) into each well and the absorbance is monitored at 490 nm over a time period of 30 sec to 2 min. The initial reaction velocity in the presence or absence of test compounds is calculated ([…] nm/ min) and the % inhibition of test compounds is calculated using the following equation: [formula] where v0 is the initial reaction velocity in the absence of compound, v is the slope of the reaction in the absence of mushroom tyrosinase and vi is the slope of the reaction in the presence of test compound. The data (% inhibition vs. [test compound]) is fitted using data analysis software and the concentration of test compound at 50% inhibition (IC50) is determined from the fitted data. The IC50 value refers to the skin lightener concentration that results in 50% tyrosinase inhibition relative to the control (with a goal being obtaining maximum tyrosinase inhibition at minimum concentration).

## O=S1(=O)OC(c2ccc(O)cc2)(c2ccc(O)cc2)c2ccccc21 [Phenol Red, reference compound]
[1]; Homo sapiens, 28 uM test agent, 20 h incubation then 4 h 14C-acetate label, read-out: % of Control (ethanol)
  activity at 28 µM: 84.4%
[1]; Homo sapiens, 280 uM test agent, 20 h incubation then 4 h 14C-acetate label, read-out: % of Control (ethanol)
  activity at 280 µM: 45.9%

## Oc1ccc(CC2CCCCC2)c(O)c1 [CHMR, 4-cyclohexylmethyl resorcinol]
[2]
  pIC50: 6.02
  potency of tyrosinase inhibition, compared in words: comparable potency
[1]; Homo sapiens, 10 uM test agent, 20 h incubation then 4 h 14C-acetate label, read-out: % of Control (ethanol)
  activity at 10 µM: 98.9%
[1]; Homo sapiens, 100 uM test agent, 20 h incubation then 4 h 14C-acetate label, read-out: % of Control (ethanol)
  activity at 100 µM: 69.3%
[1]; concentration on the order of about 100 micro-molar
  reduction in sebocyte lipid synthesis as compared to the vehicle control: statistically significant reduction

## CCc1ccc(O)cc1O [4-ethyl resorcinol (ER), 4-ethyl resorcinol, reference compound]
[2]
  pIC50: 5.96
  potency of tyrosinase inhibition, compared in words: comparable potency
